Results: EP4745137A1 (Gluetacs Therapeutics (Shanghai) Co., Ltd., priority 2023, dated 2025)
One block for each molecule: values may come before it.

Key:
CK1α = biological target: T1, CK1α (Homo sapiens, UniProt P48729+Q96SW2); experiment: Western-blot assay of substrate protein degradation in hPBMCs, CK1α; assay type: cell-based; settings: 24 hours of compound treatment, 50 nM and 500 nM tested (concentration behind the class not stated)
T1 construct: endogenous in cells; host or cells: hPBMCs (Milecell Biotechnologies)
T1 sequence (P48729 whole entry): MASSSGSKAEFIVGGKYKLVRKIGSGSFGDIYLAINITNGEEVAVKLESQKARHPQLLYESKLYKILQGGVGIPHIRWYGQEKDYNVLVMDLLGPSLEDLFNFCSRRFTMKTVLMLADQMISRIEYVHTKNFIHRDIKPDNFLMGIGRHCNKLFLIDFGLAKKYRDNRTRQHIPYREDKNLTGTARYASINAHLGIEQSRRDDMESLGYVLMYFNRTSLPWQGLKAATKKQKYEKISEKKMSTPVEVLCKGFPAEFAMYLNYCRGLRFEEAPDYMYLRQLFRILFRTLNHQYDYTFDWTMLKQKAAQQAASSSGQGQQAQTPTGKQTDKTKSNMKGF
T1 sequence (Q96SW2 whole entry): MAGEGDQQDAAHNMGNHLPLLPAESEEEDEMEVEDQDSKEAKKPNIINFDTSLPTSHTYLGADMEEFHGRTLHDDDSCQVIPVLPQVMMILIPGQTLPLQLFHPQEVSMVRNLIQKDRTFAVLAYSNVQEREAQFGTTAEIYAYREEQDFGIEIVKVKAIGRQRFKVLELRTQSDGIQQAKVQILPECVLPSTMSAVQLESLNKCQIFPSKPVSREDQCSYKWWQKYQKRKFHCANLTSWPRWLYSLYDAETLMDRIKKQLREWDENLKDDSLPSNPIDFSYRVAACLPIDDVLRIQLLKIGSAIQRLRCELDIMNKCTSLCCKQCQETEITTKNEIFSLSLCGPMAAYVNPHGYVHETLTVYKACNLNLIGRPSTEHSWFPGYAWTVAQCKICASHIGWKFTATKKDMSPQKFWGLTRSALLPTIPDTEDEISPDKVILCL
T1 sequence (Q16531 whole entry partner): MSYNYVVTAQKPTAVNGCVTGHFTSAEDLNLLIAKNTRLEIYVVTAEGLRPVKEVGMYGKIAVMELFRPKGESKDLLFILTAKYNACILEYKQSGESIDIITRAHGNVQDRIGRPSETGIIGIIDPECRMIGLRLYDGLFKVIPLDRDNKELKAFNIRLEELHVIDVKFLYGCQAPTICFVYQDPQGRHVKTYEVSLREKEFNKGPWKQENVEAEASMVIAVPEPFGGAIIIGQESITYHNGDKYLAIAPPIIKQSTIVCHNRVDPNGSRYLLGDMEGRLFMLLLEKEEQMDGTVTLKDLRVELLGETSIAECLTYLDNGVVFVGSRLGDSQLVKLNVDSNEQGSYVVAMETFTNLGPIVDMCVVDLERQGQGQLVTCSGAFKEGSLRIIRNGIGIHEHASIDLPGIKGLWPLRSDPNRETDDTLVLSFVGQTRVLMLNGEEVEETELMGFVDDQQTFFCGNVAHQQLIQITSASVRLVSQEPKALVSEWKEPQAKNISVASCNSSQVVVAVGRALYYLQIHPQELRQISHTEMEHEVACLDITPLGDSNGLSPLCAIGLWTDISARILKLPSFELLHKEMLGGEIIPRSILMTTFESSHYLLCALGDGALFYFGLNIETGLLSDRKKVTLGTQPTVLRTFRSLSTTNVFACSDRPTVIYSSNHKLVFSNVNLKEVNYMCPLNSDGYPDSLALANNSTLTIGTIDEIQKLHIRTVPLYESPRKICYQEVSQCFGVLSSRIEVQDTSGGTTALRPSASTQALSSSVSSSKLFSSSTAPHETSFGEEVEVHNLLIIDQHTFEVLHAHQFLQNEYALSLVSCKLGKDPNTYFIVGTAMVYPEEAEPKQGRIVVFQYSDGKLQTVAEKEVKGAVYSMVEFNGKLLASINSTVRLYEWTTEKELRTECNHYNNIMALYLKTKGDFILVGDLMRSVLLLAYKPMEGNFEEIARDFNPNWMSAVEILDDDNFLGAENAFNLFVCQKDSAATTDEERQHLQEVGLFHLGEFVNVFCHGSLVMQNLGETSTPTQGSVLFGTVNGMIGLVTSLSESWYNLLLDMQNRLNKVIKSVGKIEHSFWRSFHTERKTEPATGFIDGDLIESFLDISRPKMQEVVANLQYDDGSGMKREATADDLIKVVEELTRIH

WEE1 = biological target: T2, WEE1 (Homo sapiens, UniProt P30291+Q96SW2); experiment: Western-blot assay of substrate protein degradation in hPBMCs, WEE1; assay type: cell-based; settings: 24 hours of compound treatment, 50 nM and 500 nM tested (concentration behind the class not stated)
T2 construct: endogenous in cells; host or cells: hPBMCs (Milecell Biotechnologies)
T2 sequence (P30291 whole entry): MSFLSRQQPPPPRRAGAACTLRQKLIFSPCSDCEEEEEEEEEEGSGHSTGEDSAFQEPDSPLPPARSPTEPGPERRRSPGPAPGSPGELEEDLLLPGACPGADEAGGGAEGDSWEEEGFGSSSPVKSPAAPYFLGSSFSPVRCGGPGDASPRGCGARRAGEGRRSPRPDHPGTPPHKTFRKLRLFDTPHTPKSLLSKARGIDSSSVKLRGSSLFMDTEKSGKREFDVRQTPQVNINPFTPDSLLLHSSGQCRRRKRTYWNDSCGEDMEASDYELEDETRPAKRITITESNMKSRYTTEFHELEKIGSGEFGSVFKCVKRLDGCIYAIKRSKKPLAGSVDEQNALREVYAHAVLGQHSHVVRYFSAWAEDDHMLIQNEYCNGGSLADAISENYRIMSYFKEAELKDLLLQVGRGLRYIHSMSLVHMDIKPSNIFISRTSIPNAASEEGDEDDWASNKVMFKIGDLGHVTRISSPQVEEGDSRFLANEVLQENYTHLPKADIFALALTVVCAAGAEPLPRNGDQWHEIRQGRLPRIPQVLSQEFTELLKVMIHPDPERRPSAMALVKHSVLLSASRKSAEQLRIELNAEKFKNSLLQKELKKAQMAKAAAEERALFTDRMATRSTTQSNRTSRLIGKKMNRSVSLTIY
T2 sequence (Q96SW2 whole entry): as the sequence (Q96SW2 whole entry) above
T2 sequence (Q16531 whole entry partner): as the sequence (Q16531 whole entry partner) above

IKZF1 = biological target: T3, IKZF1 (Homo sapiens, UniProt Q13422+Q96SW2); experiment: Western-blot assay of substrate protein degradation in hPBMCs, IKZF1; assay type: cell-based; settings: 24 hours of compound treatment, 50 nM and 500 nM tested (concentration behind the class not stated)
T3 construct: endogenous in cells; host or cells: hPBMCs (Milecell Biotechnologies)

IKZF3 = biological target: T4, IKZF3 (Homo sapiens, UniProt Q96SW2+Q9UKT9); experiment: Western-blot assay of substrate protein degradation in hPBMCs, IKZF3; assay type: cell-based; settings: 24 hours of compound treatment, 50 nM and 500 nM tested (concentration behind the class not stated)
T4 construct: endogenous in cells; host or cells: hPBMCs (Milecell Biotechnologies)
T4 sequence (Q9UKT9 whole entry): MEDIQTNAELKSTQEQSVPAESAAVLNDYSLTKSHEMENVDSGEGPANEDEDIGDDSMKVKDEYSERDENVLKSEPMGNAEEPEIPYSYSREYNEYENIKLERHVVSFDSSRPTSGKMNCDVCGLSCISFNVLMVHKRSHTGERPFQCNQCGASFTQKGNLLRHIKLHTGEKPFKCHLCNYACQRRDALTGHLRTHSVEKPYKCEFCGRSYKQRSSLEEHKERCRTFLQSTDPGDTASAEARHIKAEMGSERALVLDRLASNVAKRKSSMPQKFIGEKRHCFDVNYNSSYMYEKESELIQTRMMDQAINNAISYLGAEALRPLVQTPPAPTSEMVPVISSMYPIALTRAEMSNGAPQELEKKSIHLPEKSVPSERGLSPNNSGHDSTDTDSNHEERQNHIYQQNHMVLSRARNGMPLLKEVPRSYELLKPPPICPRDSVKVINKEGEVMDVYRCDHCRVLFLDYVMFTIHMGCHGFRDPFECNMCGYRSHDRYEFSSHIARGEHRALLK
T4 sequence (Q96SW2 whole entry): as the sequence (Q96SW2 whole entry) above
T4 sequence (Q16531 whole entry partner): as the sequence (Q16531 whole entry partner) above

GSPT1 = biological target: T5, GSPT1 (Homo sapiens, UniProt P15170+Q96SW2); experiment: Western-blot assay of substrate protein degradation in hPBMCs, GSPT1; assay type: cell-based; settings: 24 hours of compound treatment, 50 nM and 500 nM tested (concentration behind the class not stated)
T5 construct: endogenous in cells; host or cells: hPBMCs (Milecell Biotechnologies)
T5 sequence (P15170 whole entry): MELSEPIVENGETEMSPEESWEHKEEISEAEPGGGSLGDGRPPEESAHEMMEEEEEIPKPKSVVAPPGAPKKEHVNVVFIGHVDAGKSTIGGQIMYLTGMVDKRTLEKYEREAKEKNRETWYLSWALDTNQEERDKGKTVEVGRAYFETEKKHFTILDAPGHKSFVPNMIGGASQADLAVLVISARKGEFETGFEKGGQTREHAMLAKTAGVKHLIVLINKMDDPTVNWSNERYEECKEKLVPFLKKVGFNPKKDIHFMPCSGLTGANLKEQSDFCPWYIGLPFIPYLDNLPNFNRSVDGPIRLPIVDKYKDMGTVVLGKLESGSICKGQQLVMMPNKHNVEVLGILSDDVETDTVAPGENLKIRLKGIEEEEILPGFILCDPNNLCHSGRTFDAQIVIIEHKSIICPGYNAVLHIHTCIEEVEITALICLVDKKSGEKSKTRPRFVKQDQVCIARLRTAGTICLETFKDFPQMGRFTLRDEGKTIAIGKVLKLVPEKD
T5 sequence (Q96SW2 whole entry): as the sequence (Q96SW2 whole entry) above
T5 sequence (Q16531 whole entry partner): as the sequence (Q16531 whole entry partner) above

IKZF2 = biological target: T6, IKZF2 (Homo sapiens, UniProt Q96SW2+Q9UKS7); experiment: Western-blot assay of substrate protein degradation in hPBMCs, IKZF2; assay type: cell-based; settings: 24 hours of compound treatment, 50 nM and 500 nM tested (concentration behind the class not stated)
T6 construct: endogenous in cells; host or cells: hPBMCs (Milecell Biotechnologies)
T6 sequence (Q9UKS7 whole entry): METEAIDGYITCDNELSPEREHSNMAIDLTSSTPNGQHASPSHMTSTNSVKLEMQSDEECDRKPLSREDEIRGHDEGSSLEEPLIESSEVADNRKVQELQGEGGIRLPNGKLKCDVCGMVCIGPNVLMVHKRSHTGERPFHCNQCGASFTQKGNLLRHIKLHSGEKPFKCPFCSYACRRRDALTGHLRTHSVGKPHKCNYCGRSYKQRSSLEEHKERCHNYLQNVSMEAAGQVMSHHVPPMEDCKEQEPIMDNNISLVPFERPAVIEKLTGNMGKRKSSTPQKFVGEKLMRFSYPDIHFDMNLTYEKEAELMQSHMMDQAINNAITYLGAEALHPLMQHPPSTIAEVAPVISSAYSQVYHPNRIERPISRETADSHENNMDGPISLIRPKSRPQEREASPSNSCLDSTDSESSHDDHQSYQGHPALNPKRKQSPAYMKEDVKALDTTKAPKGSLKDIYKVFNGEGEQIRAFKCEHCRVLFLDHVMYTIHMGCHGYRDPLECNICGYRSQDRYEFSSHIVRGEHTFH
T6 sequence (Q96SW2 whole entry): as the sequence (Q96SW2 whole entry) above
T6 sequence (Q16531 whole entry partner): as the sequence (Q16531 whole entry partner) above

[1] = biological target: T7, human Cereblon WT GST-tagged protein (Homo sapiens, UniProt Q96SW2); experiment: CRBN-binding affinity by HTRF (CEREBLON BINDING kit); settings: HTRF inhibitory activity, CEREBLON BINDING kit; read-out: HTRF IC50
T7 construct: purchased CISBIO 64BDCRBNPEH
T7 sequence (Q96SW2 whole entry): as the sequence (Q96SW2 whole entry) above

SMILES: Cc1sc2ncnc(C3CCN(Cc4ccc5c(c4)C(=O)N(C4CCC(=O)NC4=O)C5=O)CC3)c2c1C (stereo not drawn) [GT-06593, 5-((4-(5,6-dimethylthieno[2,3-d]pyrimidin-4-yl)piperidin-1-yl)methyl)-2-(2,6-dioxopiperidin-3-yl)isoindoline-1,3-dione]
CK1a substrate protein remaining % (CK1α): B (80%< substrate protein remaining %≤ 100%)
Weel substrate protein remaining % (WEE1): A (0% ≤ substrate protein remaining % ≤ 80%)
IKZF 1 substrate protein remaining % (IKZF1): A (0% ≤ substrate protein remaining % ≤ 80%)
IKZF3 substrate protein remaining % (IKZF3): A (0% ≤ substrate protein remaining % ≤ 80%)
GSPT1 substrate protein remaining % (GSPT1): A (0% ≤ substrate protein remaining % ≤ 80%)
IKZF2 substrate protein remaining % (IKZF2): A (0% ≤ substrate protein remaining % ≤ 80%)
IC50 [1]: 1.5 to 1.9 µM

SMILES: O=C1CCC(N2C(=O)c3ccc(CN4CCC(c5ncnc6sc7c(c56)CCC7)CC4)cc3C2=O)C(=O)N1 (stereo not drawn) [GT-06650, 5-((4-(6,7-dihydro-5H-cyclopenta[4,5]thieno[2,3-d]pyrimidin-4-yl)piperidin-1-yl)methyl)-2-(2,6-dioxopiperidin-3-yl)isoindoline-1,3-dione]
CK1a substrate protein remaining % (CK1α): B (80%< substrate protein remaining %≤ 100%)
Weel substrate protein remaining % (WEE1): A (0% ≤ substrate protein remaining % ≤ 80%)
IKZF 1 substrate protein remaining % (IKZF1): B (80%< substrate protein remaining %≤ 100%)
IKZF3 substrate protein remaining % (IKZF3): B (80%< substrate protein remaining %≤ 100%)
GSPT1 substrate protein remaining % (GSPT1): B (80%< substrate protein remaining %≤ 100%)
IKZF2 substrate protein remaining % (IKZF2): B (80%< substrate protein remaining %≤ 100%)
IC50 [1]: 1.5 to 1.9 µM

SMILES: Cc1nc(C2CCN(Cc3ccc4c(c3)C(=O)N(C3CCC(=O)NC3=O)C4=O)CC2)c2c3c(sc2n1)CCC3 (stereo not drawn) [GT-06651, 2-(2,6-dioxopiperidin-3-yl)-5-((4-(2-methyl-6,7-dihydro-5H-cyclopenta[4,5]thieno[2,3-d]pyrimidin-4-yl)piperidin-1-yl)methyl)isoindoline-1,3-dione]
CK1a substrate protein remaining % (CK1α): B (80%< substrate protein remaining %≤ 100%)
Weel substrate protein remaining % (WEE1): A (0% ≤ substrate protein remaining % ≤ 80%)
IKZF 1 substrate protein remaining % (IKZF1): B (80%< substrate protein remaining %≤ 100%)
IKZF3 substrate protein remaining % (IKZF3): B (80%< substrate protein remaining %≤ 100%)
GSPT1 substrate protein remaining % (GSPT1): B (80%< substrate protein remaining %≤ 100%)
IKZF2 substrate protein remaining % (IKZF2): A (0% ≤ substrate protein remaining % ≤ 80%)
IC50 [1]: 1 to 1.5 µM

SMILES: O=C1CCC(N2C(=O)c3ccc(CN4CC=C(c5ncnc6sccc56)CC4)cc3C2=O)C(=O)N1 (stereo not drawn) [GT-06653, 2-(2,6-dioxopiperidin-3-yl)-5-((4-(thieno[2,3-d]pyrimidin-4-yl)-3,6-dihydropyridin-1(2H)-yl)methyl)isoindoline-1,3-dione]
CK1a substrate protein remaining % (CK1α): B (80%< substrate protein remaining %≤ 100%)
Weel substrate protein remaining % (WEE1): A (0% ≤ substrate protein remaining % ≤ 80%)
IKZF 1 substrate protein remaining % (IKZF1): A (0% ≤ substrate protein remaining % ≤ 80%)
IKZF3 substrate protein remaining % (IKZF3): A (0% ≤ substrate protein remaining % ≤ 80%)
GSPT1 substrate protein remaining % (GSPT1): A (0% ≤ substrate protein remaining % ≤ 80%)
IKZF2 substrate protein remaining % (IKZF2): B (80%< substrate protein remaining %≤ 100%)
IC50 [1]: 0.5 to 1 µM

SMILES: Cc1cc2c(C3=CCN(Cc4ccc5c(c4)C(=O)N(C4CCC(=O)NC4=O)C5=O)CC3)ncnc2s1 (stereo not drawn) [GT-06655, 2-(2,6-dioxopiperidin-3-yl)-5-((4-(6-methylthieno[2,3-d]pyrimidin-4-yl)-3,6-dihydropyridin-1(2H)-yl)methyl)isoindoline-1,3-dione]
CK1a substrate protein remaining % (CK1α): B (80%< substrate protein remaining %≤ 100%)
Weel substrate protein remaining % (WEE1): A (0% ≤ substrate protein remaining % ≤ 80%)
IKZF 1 substrate protein remaining % (IKZF1): A (0% ≤ substrate protein remaining % ≤ 80%)
IKZF3 substrate protein remaining % (IKZF3): A (0% ≤ substrate protein remaining % ≤ 80%)
GSPT1 substrate protein remaining % (GSPT1): A (0% ≤ substrate protein remaining % ≤ 80%)
IKZF2 substrate protein remaining % (IKZF2): A (0% ≤ substrate protein remaining % ≤ 80%)
IC50 [1]: 0.5 to 1 µM

SMILES: O=C1CCC(N2C(=O)c3ccc(CN4CC=C(c5ncnc6scc(-c7ccccc7)c56)CC4)cc3C2=O)C(=O)N1 (stereo not drawn) [GT-06676, 2-(2,6-dioxopiperidin-3-yl)-5-((4-(5-phenylthieno[2,3-d]pyrimidin-4-yl)-3,6-dihydropyridin-1(2H)-yl)methyl)isoindoline-1,3-dione]
CK1a substrate protein remaining % (CK1α): A (0% ≤ substrate protein remaining % ≤ 80%)
Weel substrate protein remaining % (WEE1): A (0% ≤ substrate protein remaining % ≤ 80%)
IKZF 1 substrate protein remaining % (IKZF1): B (80%< substrate protein remaining %≤ 100%)
IKZF3 substrate protein remaining % (IKZF3): B (80%< substrate protein remaining %≤ 100%)
GSPT1 substrate protein remaining % (GSPT1): B (80%< substrate protein remaining %≤ 100%)
IKZF2 substrate protein remaining % (IKZF2): B (80%< substrate protein remaining %≤ 100%)
IC50 [1]: 1 to 1.5 µM

SMILES: Cc1nc(C2=CCN(Cc3ccc4c(c3)C(=O)N(C3CCC(=O)NC3=O)C4=O)CC2)c2c(-c3ccccc3)csc2n1 (stereo not drawn) [GT-06677, 2-(2,6-dioxopiperidin-3-yl)-5-((4-(2-methyl-5-phenylthieno[2,3-d]pyrimidin-4-yl)-3,6-dihydropyridin-1(2H)-yl)methyl)isoindoline-1,3-dione]
CK1a substrate protein remaining % (CK1α): A (0% ≤ substrate protein remaining % ≤ 80%)
Weel substrate protein remaining % (WEE1): B (80%< substrate protein remaining %≤ 100%)
IKZF 1 substrate protein remaining % (IKZF1): B (80%< substrate protein remaining %≤ 100%)
IKZF3 substrate protein remaining % (IKZF3): B (80%< substrate protein remaining %≤ 100%)
GSPT1 substrate protein remaining % (GSPT1): B (80%< substrate protein remaining %≤ 100%)
IKZF2 substrate protein remaining % (IKZF2): B (80%< substrate protein remaining %≤ 100%)
IC50 [1]: 0.5 to 1 µM

SMILES: Cc1nc(C2=CCN(Cc3ccc4c(c3)C(=O)N(C3CCC(=O)NC3=O)C4=O)CC2)c2c3c(sc2n1)CCC3 (stereo not drawn) [GT-06682, 2-(2,6-dioxopiperidin-3-yl)-5-((4-(2-methyl-6,7-dihydro-5H-cyclopenta[4,5]thieno[2,3-d]pyrimidin-4-yl)-3,6-dihydropyridin-1(2H)-yl)methyl)isoindoline-1,3-dione]
CK1a substrate protein remaining % (CK1α): B (80%< substrate protein remaining %≤ 100%)
Weel substrate protein remaining % (WEE1): A (0% ≤ substrate protein remaining % ≤ 80%)
IKZF 1 substrate protein remaining % (IKZF1): B (80%< substrate protein remaining %≤ 100%)
IKZF3 substrate protein remaining % (IKZF3): A (0% ≤ substrate protein remaining % ≤ 80%)
GSPT1 substrate protein remaining % (GSPT1): A (0% ≤ substrate protein remaining % ≤ 80%)
IKZF2 substrate protein remaining % (IKZF2): A (0% ≤ substrate protein remaining % ≤ 80%)
IC50 [1]: 1.5 to 1.9 µM

Second part, led by results:

IC50 [1]: 0.5 to 1 µM
SMILES: O=C1CCC(N2C(=O)c3ccc(CN4CC=C(c5c[nH]c6cc(F)ccc56)CC4)cc3C2=O)C(=O)N1 (stereo not drawn) [GT-06634, 2-(2,6-dioxopiperidin-3-yl)-5-((4-(6-fluoro-1H-indol-3-yl)-3,6-dihydropyridin-1(2H)-yl)methyl)isoindoline-1,3-dione]
CK1a substrate protein remaining % (CK1α): A (0% ≤ substrate protein remaining % ≤ 80%)
Weel substrate protein remaining % (WEE1): A (0% ≤ substrate protein remaining % ≤ 80%)
IKZF 1 substrate protein remaining % (IKZF1): B (80%< substrate protein remaining %≤ 100%)
IKZF3 substrate protein remaining % (IKZF3): A (0% ≤ substrate protein remaining % ≤ 80%)
GSPT1 substrate protein remaining % (GSPT1): A (0% ≤ substrate protein remaining % ≤ 80%)
IKZF2 substrate protein remaining % (IKZF2): A (0% ≤ substrate protein remaining % ≤ 80%)

IC50 [1]: 0.5 to 1 µM
SMILES: Cc1nc(C2CCN(Cc3ccc4c(c3)C(=O)N(C3CCC(=O)NC3=O)C4=O)CC2)c2c(-c3ccccc3)csc2n1 (stereo not drawn) [GT-06646, 2-(2,6-dioxopiperidin-3-yl)-5-((4-(2-methyl-5-phenylthieno[2,3-d]pyrimidin-4-yl)piperidin-1-yl)methyl)isoindoline-1,3-dione]
CK1a substrate protein remaining % (CK1α): B (80%< substrate protein remaining %≤ 100%)
Weel substrate protein remaining % (WEE1): B (80%< substrate protein remaining %≤ 100%)
IKZF 1 substrate protein remaining % (IKZF1): B (80%< substrate protein remaining %≤ 100%)
IKZF3 substrate protein remaining % (IKZF3): B (80%< substrate protein remaining %≤ 100%)
GSPT1 substrate protein remaining % (GSPT1): A (0% ≤ substrate protein remaining % ≤ 80%)
IKZF2 substrate protein remaining % (IKZF2): B (80%< substrate protein remaining %≤ 100%)

IC50 [1]: 1.5 to 1.9 µM
SMILES: O=C1CCC(N2C(=O)c3ccc(CN4CCC(c5ncnc6sc7c(c56)CCCC7)CC4)cc3C2=O)C(=O)N1 (stereo not drawn) [GT-06649, 2-(2,6-dioxopiperidin-3-yl)-5-((4-(5,6,7,8-tetrahydrobenzo[4,5]thieno[2,3-d]pyrimidin-4-yl)piperidin-1-yl)methyl)isoindoline-1,3-dione]
CK1a substrate protein remaining % (CK1α): A (0% ≤ substrate protein remaining % ≤ 80%)
Weel substrate protein remaining % (WEE1): A (0% ≤ substrate protein remaining % ≤ 80%)
IKZF 1 substrate protein remaining % (IKZF1): B (80%< substrate protein remaining %≤ 100%)
IKZF3 substrate protein remaining % (IKZF3): A (0% ≤ substrate protein remaining % ≤ 80%)
GSPT1 substrate protein remaining % (GSPT1): A (0% ≤ substrate protein remaining % ≤ 80%)
IKZF2 substrate protein remaining % (IKZF2): A (0% ≤ substrate protein remaining % ≤ 80%)

IC50 [1]: 1 to 1.5 µM
SMILES: Cc1sc2ncnc(C3=CCN(Cc4ccc5c(c4)C(=O)N(C4CCC(=O)NC4=O)C5=O)CC3)c2c1C (stereo not drawn) [GT-06657, 5-((4-(5,6-dimethylthieno[2,3-d]pyrimidin-4-yl)-3,6-dihydropyridin-1 (2H)-yl)methyl)-2-(2,6-dioxopiperidin-3-yl)isoindoline-1,3-dione]
CK1a substrate protein remaining % (CK1α): B (80%< substrate protein remaining %≤ 100%)
Weel substrate protein remaining % (WEE1): A (0% ≤ substrate protein remaining % ≤ 80%)
IKZF 1 substrate protein remaining % (IKZF1): A (0% ≤ substrate protein remaining % ≤ 80%)
IKZF3 substrate protein remaining % (IKZF3): B (80%< substrate protein remaining %≤ 100%)
GSPT1 substrate protein remaining % (GSPT1): A (0% ≤ substrate protein remaining % ≤ 80%)
IKZF2 substrate protein remaining % (IKZF2): B (80%< substrate protein remaining %≤ 100%)
